Here are results for five compounds from patent US20230339865A1, “QUINAZOLINE-DERIVED HCK INHIBITORS FOR USE IN THE TREATMENT OF MYD88 MUTATED DISEASES” (Dana-Farber Cancer Institute, Inc., priority 2020, published 2023).

SMILES strings stand for the structures.

Data set [1] has as its target T1, MAP3K7/MAP3K7IP1 (TAK1-TAB1) (Homo sapiens, UniProt O43318).
T1 construct: purchased Invitrogen
The experiment in a line: Invitrogen kinase assay MAP3K7/MAP3K7IP1 (TAK1-TAB1). The class given is biochemical. How it is done:
(§1) The IC50 values were also determined for Compound (I-1) using an Invitrogen kinase assay. The results are shown in Table 2, along with comparison data with TL2-059.

Data set [2] addresses T2, TAOK2 (TAO1) (Homo sapiens, UniProt Q9UL54).
T2 construct: purchased Invitrogen
The data set can be described thus: Invitrogen kinase assay TAOK2 (TAO1). The data set is classed as biochemical. As to the method: as §1

Data set [3] relates to HCK, BTK, and NFκB. The data set can be described thus: Pharmacodynamic studies in mice. The data set is classed as in vivo.
Data set [4] is described as follows: microsome stability (human). The note with it: microsomes, read-out: microsome stability (T1/2, min). The class given is in vitro ADME. How it is done: (§2) The compounds were tested against several different cell lines, and the ED50 values determined, along with the microsome stability.
Data set [5] concerns the target T3, SRC (Homo sapiens, UniProt P12931).
T3 construct: purchased Invitrogen
The experiment in a line: Invitrogen kinase assay SRC. The class given is biochemical. As to the method: as §1

Data set [6] deals with T4, MAPK14 (p38 alpha) Direct (Homo sapiens, UniProt Q16539).
T4 construct: purchased Invitrogen
The experiment in a line: Invitrogen kinase assay MAPK14 (p38 alpha) Direct. The class given is biochemical. How it is done: as §1

The target in data set [7] is T5, ABL2 (Arg) (Homo sapiens, UniProt P42684).
T5 construct: purchased Invitrogen
The experiment in a line: Invitrogen kinase assay ABL2 (Arg). The data set is classed as biochemical. How it is done: as §1

The target of data set [8] is T6, HCK (Homo sapiens, UniProt P08631). The experiment in a line: HCK inhibition in MYD88 mutated cells. The class given is cell-based. The note with it: MYD88 mutated WM and ABC DLBCL cell lines and primary WM cells.
Data set [9] addresses T7, FGR (Homo sapiens, UniProt P09769).
T7 construct: purchased Invitrogen
The experiment in a line: Invitrogen kinase assay FGR. The class given is biochemical. As to the method: as §1

Data set [10] has as its target T8, FYN (Homo sapiens, UniProt P06241).
T8 construct: purchased Invitrogen
The experiment in a line: Invitrogen kinase assay FYN. The data set is classed as biochemical. As to the method: as §1

The target of data set [11] is T9, FES (FPS) (Homo sapiens, UniProt P07332).
T9 construct: purchased Invitrogen
The data set can be described thus: Invitrogen kinase assay FES (FPS). The data set is classed as biochemical. As to the method: as §1

Data set [12] has as its target T10, FER (Homo sapiens, UniProt P16591).
T10 construct: purchased Invitrogen
The data set can be described thus: Invitrogen kinase assay FER. The class given is biochemical. How it is done: as §1

Data set [13] deals with MYD88 mutated WM and ABC DLBCL cell lines, primary WM cells. The experiment in a line: Apoptotic effects in MYD88 mutated cells. The class given is cell-based. The settings on record: vs. ibrutinib or A419259.
For data set [14], the target named is T11, ABL1 (Homo sapiens, UniProt P00519).
T11 construct: purchased Invitrogen
The data set can be described thus: Invitrogen kinase assay ABL1. The data set is classed as biochemical. As to the method: as §1

In data set [15] the target is T12, LYN A (Homo sapiens, UniProt P07948).
T12 construct: purchased Invitrogen
The experiment in a line: Invitrogen kinase assay LYN A. The data set is classed as biochemical. How it is done: as §1

The target in data set [16] is T13, LCK (Homo sapiens, UniProt P06239).
T13 construct: purchased Invitrogen
The data set can be described thus: Invitrogen kinase assay LCK. The data set is classed as biochemical. How it is done:
as §1

The target in data set [17] is T14, TAOK3 (JIK) (Homo sapiens, UniProt Q9H2K8).
T14 construct: purchased Invitrogen
The experiment in a line: Invitrogen kinase assay TAOK3 (JIK). The class given is biochemical. How it is done:
as §1

Data set [18] has as its target T15, MAP4K2 (GCK) (Homo sapiens, UniProt Q12851).
T15 construct: purchased Invitrogen
The data set can be described thus: Invitrogen kinase assay MAP4K2 (GCK). The class given is biochemical. As to the method: as §1

Data set [19] has as its target T16, TAOK1 (Homo sapiens, UniProt Q7L7X3).
T16 construct: purchased Invitrogen
The experiment in a line: Invitrogen kinase assay TAOK1. The data set is classed as biochemical. As to the method: as §1

The target in data set [20] is T17, MAP4K1 (HPK1) (Homo sapiens, UniProt Q92918).
T17 construct: purchased Invitrogen
The experiment in a line: Invitrogen kinase assay MAP4K1 (HPK1). The class given is biochemical. As to the method: as §1

The nature of data set [21]: microsome stability (mouse). The settings on record: microsomes, read-out: microsome stability (T1/2, min). The class given is in vitro ADME. As to the method:
as §2

The target of data set [22] is T6, HCK. The data set can be described thus: Invitrogen kinase assay HCK. The data set is classed as biochemical. On the set-up: purchased Invitrogen. How it is done:
as §1

Data set [23] relates to healthy donor B- and T-cells. The data set can be described thus: Effect on healthy donor B- and T-cells. The data set is classed as cell-based.
A short description of data set [24]: microsome stability (rat). The class given is in vitro ADME. The note with it: microsomes, read-out: microsome stability (T1/2, min). How it is done:
as §2

Data set [25] concerns MYD88 mutated ABC DLBCL TMD8 xenograft. The experiment in a line: In-vivo rat efficacy study in MYD88 mutated ABC DLBCL TMD8 xenografted rats. How it is done: Example 1. In-Vivo Rat Efficacy Study in MYD88 Mutated ABC DLBCL TMD8 Xenografted Rats
A rat efficacy study for was carried out with Compound (I-1) using an MYD88 mutated ABC DLBCL TMD8 xenografted rat model.

T6 sequence (P08631 whole entry): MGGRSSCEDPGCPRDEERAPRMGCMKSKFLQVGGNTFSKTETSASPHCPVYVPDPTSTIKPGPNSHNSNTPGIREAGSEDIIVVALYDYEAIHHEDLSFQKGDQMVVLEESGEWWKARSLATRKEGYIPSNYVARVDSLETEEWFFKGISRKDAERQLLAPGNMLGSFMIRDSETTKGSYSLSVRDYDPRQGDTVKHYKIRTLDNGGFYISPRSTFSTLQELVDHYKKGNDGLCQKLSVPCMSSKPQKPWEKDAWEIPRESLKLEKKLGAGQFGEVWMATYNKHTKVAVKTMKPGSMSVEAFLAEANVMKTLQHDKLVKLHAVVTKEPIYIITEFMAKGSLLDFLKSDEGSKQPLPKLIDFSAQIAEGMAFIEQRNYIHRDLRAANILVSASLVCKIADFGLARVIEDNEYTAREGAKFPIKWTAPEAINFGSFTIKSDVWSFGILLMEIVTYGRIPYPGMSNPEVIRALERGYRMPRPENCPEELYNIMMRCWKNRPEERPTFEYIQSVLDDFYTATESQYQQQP
T3 sequence (P12931 whole entry): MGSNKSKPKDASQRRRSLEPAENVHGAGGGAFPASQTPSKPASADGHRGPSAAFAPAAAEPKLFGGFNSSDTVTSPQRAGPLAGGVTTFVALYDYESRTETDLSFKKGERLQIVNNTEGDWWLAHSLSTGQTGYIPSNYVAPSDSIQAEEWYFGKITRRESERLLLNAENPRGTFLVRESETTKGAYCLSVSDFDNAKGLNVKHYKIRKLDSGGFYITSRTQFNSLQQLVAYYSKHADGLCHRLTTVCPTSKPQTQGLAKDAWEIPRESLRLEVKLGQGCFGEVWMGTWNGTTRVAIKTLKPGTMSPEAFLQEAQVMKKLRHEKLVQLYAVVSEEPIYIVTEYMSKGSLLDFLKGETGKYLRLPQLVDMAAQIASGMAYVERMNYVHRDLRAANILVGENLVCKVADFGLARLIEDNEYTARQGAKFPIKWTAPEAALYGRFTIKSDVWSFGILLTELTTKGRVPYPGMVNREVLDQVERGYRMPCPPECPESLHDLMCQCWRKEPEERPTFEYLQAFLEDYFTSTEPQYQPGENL
T8 sequence (P06241 whole entry): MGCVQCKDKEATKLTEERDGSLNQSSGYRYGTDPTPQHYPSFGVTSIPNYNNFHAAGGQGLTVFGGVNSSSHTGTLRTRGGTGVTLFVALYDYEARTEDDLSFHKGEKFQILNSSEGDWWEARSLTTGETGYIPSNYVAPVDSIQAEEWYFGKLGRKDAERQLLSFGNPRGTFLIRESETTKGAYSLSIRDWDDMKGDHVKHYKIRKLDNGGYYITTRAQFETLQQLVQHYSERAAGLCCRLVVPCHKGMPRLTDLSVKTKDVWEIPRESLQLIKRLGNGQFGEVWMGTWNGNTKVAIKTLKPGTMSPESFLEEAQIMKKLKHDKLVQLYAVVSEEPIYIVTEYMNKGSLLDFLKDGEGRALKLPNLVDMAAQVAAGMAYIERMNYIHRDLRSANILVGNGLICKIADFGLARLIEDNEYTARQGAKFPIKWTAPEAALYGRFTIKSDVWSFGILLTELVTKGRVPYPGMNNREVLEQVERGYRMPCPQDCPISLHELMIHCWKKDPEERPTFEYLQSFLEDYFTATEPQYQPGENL
T4 sequence (Q16539 whole entry): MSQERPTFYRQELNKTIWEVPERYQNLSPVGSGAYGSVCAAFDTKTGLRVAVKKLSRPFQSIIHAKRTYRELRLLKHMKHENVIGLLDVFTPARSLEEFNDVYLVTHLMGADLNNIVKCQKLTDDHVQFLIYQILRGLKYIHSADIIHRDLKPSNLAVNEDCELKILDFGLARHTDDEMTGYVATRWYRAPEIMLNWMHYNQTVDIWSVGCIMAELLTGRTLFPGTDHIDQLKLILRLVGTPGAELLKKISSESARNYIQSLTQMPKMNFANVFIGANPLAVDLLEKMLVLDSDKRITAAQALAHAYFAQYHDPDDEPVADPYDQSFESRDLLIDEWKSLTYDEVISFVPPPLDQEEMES
T2 sequence (Q9UL54 whole entry): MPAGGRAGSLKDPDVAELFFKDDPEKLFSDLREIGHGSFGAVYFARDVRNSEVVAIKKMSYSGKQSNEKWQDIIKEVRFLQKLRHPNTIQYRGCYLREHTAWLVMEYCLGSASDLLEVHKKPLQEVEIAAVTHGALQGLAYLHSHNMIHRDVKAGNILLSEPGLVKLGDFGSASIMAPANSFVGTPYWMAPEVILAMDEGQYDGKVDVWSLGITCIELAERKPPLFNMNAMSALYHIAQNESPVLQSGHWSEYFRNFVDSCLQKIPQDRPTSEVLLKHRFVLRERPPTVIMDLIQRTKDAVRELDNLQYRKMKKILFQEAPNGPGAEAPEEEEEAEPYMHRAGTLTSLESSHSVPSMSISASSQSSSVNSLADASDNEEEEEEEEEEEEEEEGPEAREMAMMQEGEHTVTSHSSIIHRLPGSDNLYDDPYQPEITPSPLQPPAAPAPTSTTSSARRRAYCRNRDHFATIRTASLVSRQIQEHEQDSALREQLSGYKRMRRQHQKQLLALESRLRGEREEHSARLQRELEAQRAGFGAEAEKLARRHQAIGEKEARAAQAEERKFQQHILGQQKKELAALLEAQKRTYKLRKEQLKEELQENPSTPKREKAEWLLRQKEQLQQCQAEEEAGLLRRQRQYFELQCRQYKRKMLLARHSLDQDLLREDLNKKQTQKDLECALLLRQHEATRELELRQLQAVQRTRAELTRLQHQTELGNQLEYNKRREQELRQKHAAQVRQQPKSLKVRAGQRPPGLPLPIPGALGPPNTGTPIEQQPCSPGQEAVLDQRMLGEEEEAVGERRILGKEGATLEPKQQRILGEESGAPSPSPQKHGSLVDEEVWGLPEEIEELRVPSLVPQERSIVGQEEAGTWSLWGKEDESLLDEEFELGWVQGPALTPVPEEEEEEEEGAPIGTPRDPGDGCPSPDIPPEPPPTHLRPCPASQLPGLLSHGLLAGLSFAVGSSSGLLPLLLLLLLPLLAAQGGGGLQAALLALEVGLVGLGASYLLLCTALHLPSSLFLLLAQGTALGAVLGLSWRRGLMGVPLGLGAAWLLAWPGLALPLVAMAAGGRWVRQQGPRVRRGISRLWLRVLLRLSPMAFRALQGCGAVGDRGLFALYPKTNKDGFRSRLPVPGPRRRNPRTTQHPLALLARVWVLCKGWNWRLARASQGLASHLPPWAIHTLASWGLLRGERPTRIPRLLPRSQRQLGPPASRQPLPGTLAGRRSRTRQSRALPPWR
T9 sequence (P07332 whole entry): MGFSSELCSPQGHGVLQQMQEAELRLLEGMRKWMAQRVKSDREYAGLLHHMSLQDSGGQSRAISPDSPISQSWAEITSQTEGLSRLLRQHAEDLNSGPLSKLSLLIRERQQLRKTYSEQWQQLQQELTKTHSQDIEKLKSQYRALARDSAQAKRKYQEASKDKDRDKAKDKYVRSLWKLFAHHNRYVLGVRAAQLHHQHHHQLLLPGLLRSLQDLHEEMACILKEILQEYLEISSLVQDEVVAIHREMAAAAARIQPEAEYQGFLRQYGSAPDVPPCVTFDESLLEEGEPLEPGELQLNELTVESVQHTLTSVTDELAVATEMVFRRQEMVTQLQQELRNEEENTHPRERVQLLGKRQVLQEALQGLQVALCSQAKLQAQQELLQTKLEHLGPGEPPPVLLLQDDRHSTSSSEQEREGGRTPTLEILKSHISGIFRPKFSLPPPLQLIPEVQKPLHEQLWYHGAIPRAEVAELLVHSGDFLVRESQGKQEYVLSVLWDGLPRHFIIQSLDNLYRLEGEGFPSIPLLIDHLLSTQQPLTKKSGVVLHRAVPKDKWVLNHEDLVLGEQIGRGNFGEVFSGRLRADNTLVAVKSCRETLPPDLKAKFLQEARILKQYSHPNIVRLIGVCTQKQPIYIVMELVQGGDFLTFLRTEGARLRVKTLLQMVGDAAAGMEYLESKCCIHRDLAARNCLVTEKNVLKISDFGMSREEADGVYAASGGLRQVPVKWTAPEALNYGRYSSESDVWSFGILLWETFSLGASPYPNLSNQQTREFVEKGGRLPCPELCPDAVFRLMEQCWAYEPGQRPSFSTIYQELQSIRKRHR
T7 sequence (P09769 whole entry): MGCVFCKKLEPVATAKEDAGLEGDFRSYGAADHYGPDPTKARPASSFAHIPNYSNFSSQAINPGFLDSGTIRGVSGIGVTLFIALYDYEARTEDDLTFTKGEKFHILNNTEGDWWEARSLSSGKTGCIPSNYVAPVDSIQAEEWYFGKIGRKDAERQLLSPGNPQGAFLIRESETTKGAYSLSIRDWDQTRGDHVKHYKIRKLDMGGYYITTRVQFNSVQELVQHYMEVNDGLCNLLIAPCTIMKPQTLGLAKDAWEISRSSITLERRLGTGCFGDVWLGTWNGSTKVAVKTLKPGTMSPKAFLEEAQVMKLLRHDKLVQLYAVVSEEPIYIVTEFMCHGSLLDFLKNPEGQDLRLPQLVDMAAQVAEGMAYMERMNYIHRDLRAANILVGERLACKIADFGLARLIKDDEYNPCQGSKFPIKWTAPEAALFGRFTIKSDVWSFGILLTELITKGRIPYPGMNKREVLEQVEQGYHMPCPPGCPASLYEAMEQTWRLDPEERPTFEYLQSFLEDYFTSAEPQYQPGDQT
T1 sequence (O43318 with tags, fused parts or gaps limits assumed): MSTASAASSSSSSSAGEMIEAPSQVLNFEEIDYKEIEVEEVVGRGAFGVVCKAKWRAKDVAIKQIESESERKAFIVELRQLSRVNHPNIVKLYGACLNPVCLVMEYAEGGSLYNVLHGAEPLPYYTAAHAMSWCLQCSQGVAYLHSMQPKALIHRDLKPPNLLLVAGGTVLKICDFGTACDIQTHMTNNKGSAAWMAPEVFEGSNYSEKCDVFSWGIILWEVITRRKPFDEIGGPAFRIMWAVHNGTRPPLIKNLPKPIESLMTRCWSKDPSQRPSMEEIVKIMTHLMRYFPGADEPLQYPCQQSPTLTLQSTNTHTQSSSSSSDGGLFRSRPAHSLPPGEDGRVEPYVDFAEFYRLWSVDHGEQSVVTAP

As to `CCN1CCN(Cc2ccc(NC(=O)c3ccc(C)c(Oc4ncnc5cc(NC)c(OC)cc45)c3)cc2C(F)(F)F)CC1` [Compound (I-1), N-(4-((4-ethylpiperazin-1-yl)methyl)-3-(trifluoromethyl)phenyl)-3-(6-methoxy-7-(methylamino)quinazolin-4-yloxy)-4-methylbenzamide], the IC50 (commonly the concentration that gives 50% inhibition) was determined as 24.1 nM in data set [1]; 61.3 nM in data set [2]; 77.5 nM in [5]; 79.7 nM in data set [6]; 45.5 nM in data set [7]; 8.02 nM in data set [9]. For the same compound, the IC50 amounted to 419 nM in data set [10]; 11 nM in [11]; 9.81 nM in data set [12]; 32.3 nM in [14]; 8.77 nM in data set [15]; 4.73 nM in data set [16]. Moreover, the IC50 was 413 nM in data set [17]; 8.35 nM in data set [18]; 194 nM in [19]; 11.8 nM in data set [20]; 7.39 nM in [22]. Moreover, the “Pharmacodynamic inhibition of HCK, BTK, and NFκB” value in data set [3] was “inhibition of HCK, BTK, and NFκB”. Besides, the tumor redistribution result in data set [3] is recorded as “dose-related tumor redistribution”. For the same compound, the half-life in data set [4] was 79.3 min; in data set [21] it was 42.4 min; in data set [24], 60.2 min. Also, the HCK inhibition entry in data set [8] is “inhibits HCK in a dose dependent Type II inhibition”. Besides, the apoptotic effects result in data set [13] was “potent apoptotic effects”. For the same compound, the “effect on healthy donor B- and T-cells” value in data set [23] was “sparing of healthy donor B- and T-cells”. The “Mean tumor volume compared to vehicle” value in data set [25] (30 mg/kg, TMD8 xenografted rat model) is “lower Mean tumor volume compared to vehicle”. In [25] (TMD8 xenograft model, vehicle 22 survival days), this compound gave a survival days of 43 days.
As for `CCN1CCN(Cc2ccc(NC(=O)c3ccc(C)c(Oc4ncnc5cc(N)c(OC)cc45)c3)cc2C(F)(F)F)CC1` [Compound (I-2), 3-(7-amino-6-methoxyquinazolin-4-yloxy)-N-(4-((4-ethylpiperazin-1-yl)methyl)-3-(trifluoromethyl)phenyl)-4-methylbenzamide], the half-life in data set [21] was determined as 41.7 min.
Regarding `COc1cc2c(Oc3cc(C(=O)Nc4cccc(C(F)(F)F)c4)ccc3C)ncnc2cc1NCCN1CCN(C)CC1` [Compound (I-4), 3-(6-methoxy-7-(2-(4-methylpiperazin-1-yl)ethylamino)quinazolin-4-yloxy)-4-methyl-N-(3-(trifluoromethyl)phenyl)benzamide], the half-life in data set [21] is 5.7 min.
`CCN1CCN(Cc2ccc(NC(=O)c3ccc(C)c(Oc4ncnc5cc(NC)ccc45)c3)cc2C(F)(F)F)CC1` [Compound (I-14), N-(4-((4-ethylpiperazin-1-yl)methyl)-3-(trifluoromethyl)phenyl)-4-methyl-3-(7-(methylamino)quinazolin-4-yloxy)benzamide]: in [21], the half-life came out at 20.4 min.
`CCN1CCN(Cc2ccc(NC(=O)c3ccc(C)c(Oc4ncnc5cc6[nH]cnc6cc45)c3)cc2C(F)(F)F)CC1` [Compound (I-16), 3-(3H-imidazo[4,5-g]quinazolin-8-yloxy)-N-(4-((4-ethylpiperazin-1-yl)methyl)-3-(trifluoromethyl)phenyl)-4-methylbenzamide]: the half-life in [21] came out at 8.6 min.
